Our source for the EC50 and IC50 values is BindingDB's records for doi:10.1021/cb400452z (2013).

Assay [1] addresses T1, Serine/threonine-protein kinase PKH2 [1-944] (Candida albicans (strain SC5314 / ATCC MYA-2876), UniProt Q5A3P6).
T1 construct: 1-944
T1 sequence (Q5A3P6 whole entry): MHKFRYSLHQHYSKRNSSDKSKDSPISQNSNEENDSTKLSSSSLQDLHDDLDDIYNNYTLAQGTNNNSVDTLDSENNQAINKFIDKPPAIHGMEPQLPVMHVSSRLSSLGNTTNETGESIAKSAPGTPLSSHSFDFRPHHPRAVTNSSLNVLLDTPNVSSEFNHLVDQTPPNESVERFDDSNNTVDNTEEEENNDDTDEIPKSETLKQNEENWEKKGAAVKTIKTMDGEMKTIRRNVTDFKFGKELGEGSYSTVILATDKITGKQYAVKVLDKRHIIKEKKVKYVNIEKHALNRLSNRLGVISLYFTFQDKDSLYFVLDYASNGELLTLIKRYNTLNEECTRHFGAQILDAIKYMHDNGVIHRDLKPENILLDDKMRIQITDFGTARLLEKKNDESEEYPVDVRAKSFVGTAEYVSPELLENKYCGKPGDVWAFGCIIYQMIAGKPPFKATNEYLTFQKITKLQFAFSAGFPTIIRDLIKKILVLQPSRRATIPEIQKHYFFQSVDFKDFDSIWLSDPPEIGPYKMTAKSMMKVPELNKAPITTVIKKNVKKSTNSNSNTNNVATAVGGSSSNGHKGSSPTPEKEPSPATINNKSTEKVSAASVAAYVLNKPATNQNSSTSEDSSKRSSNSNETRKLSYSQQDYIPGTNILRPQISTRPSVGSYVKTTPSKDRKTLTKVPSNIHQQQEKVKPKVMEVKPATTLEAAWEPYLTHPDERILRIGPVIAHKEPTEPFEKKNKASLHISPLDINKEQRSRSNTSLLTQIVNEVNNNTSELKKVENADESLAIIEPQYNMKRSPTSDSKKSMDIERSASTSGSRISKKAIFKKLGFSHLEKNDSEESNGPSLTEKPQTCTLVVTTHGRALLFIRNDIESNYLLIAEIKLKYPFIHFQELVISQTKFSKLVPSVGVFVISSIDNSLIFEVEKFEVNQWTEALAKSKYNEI
As to the kind of experiment: AlphaScreen Assay. The note with it: pH 7.4. How it is done:
(§1) The AlphaScreen Assay (Perkin Elmer) was performed according to the manufacturer's protocol in 384-well microtiter plates. Incubations were performed in white 384-well microtiter plates containing 20uL of a reaction mix (50mM Tris-HCl pH 7.4, 100mM NaCl, 1mM dithiotreitol, 0.01% (v/v) Tween-20, 0.1% (w/v) BSA, 1mM DMSO, 100nM His-CaPkh2 or 100nM His-PDK1, 50nM Biotin-PIFtide, and the indicated concentrations of unlabeled PIF-tide or small compounds) and 5uL of beads. 5uL of beads solution containing nickel chelate-coated acceptor beads and streptavidin-coated donor beads (20ug/mL final concentrations) was added to the reaction mix. The reaction mix and the beads were incubated in the dark for 45 min at RT and the emission of light from the acceptor beads was measured in the EnVision reader (Perkin Elmer) and analyzed using the GraphPad Prism software.

In assay [2] the target is T2, 3-phosphoinositide-dependent protein kinase 1 (Homo sapiens, UniProt O15530).
T2 sequence (O15530 whole entry): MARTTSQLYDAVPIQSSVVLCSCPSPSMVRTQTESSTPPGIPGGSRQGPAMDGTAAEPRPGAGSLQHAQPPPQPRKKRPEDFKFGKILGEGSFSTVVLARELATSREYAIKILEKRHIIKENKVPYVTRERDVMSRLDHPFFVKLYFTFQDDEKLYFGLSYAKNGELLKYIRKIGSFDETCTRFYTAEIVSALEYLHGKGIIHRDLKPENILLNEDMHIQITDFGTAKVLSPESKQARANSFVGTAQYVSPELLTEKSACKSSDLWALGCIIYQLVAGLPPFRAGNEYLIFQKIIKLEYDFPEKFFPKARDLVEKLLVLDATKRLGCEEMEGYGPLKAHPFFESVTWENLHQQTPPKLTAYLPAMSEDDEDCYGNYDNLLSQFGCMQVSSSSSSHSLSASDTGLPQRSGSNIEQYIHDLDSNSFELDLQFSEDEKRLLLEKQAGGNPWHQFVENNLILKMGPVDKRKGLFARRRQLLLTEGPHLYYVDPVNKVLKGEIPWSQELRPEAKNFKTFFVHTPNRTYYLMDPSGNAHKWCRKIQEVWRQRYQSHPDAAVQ
The assay can be described thus: AlphaScreen Assay. The note with it: pH 7.4; room temperature. How it is done: as §1
Background: In Alpha technology, singlet oxygen from a donor bead excites a nearby acceptor bead.

The target in assay [3] is T2, 3-phosphoinositide-dependent protein kinase 1. The assay can be described thus: Protein Kinase Activity Assay. Conditions: pH 7.4; 0 °C. How it is done: (§2) A 20ul mix containing 50mM Tris pH 7.5, 0.05mg/ml BSA, 0.1% β-mercaptoethanol, 10mM MgCl2, 100μM [γ-P32]ATP (5-50cpm/pmol), 0.003% Brij, 150-500ng PDK1 or CaPkh2, and T308tide (from 0.1 to 1mM) was pre-incubated at room temperature (22¿C) for 15 minutes. The kinase reaction was initiated by the addition of the ATP-Mg mixture, followed by the addition of 5μl phosphoric acid (final concentration 0.01%) to stop the reaction. The PDK1 activity assay was performed in a 96 well format and 4μl aliquots spotted on p81 phosphocellulose papers (Whatmann) using ep motion 5070 (Eppendorf), washed in 0.01% phosphoric acid, dried, and then exposed and analyzed using PhophoImager technology (FLA-9000 Starion, Fujifilm). The specific activity of CaPkh2 and PDK1 was estimated using 100μM T308tide.

Assay [4] concerns the target T1, Serine/threonine-protein kinase PKH2 [1-944]. As to the kind of experiment: Protein Kinase Activity Assay. Conditions: pH 7.4; 0 °C. How it is done: as §2

In assay [1] (room temperature), `O=C(O)CSC(CC(=O)c1ccc(Cl)cc1)c1ccccc1` (stereo not drawn) yielded an EC50 of 85 µM.
With `O=C(C[C@@H](c1ccccc1)C(C(=O)O)C(=O)O)c1ccc(C(F)(F)F)cc1`, the concentration giving a half-maximal response (EC50) in assay [2] worked out at 39 µM; in assay [1] (room temperature), 60 µM.
Regarding `O=C(O)CSC(CC(=O)c1ccc(Cl)cc1)c1ccccc1Sc1ccc(Cl)cc1` (stereo not drawn) [PS77], the IC50 in assay [3] was found to be 38 µM; in assay [4], 17 µM. For the same compound, the EC50 in assay [1] was found to be 44 µM.
Turning to `O=C(CC(c1ccccc1)C(C(=O)O)C(=O)O)c1ccc(Cl)cc1` (stereo not drawn) [PS182], the EC50 in assay [2] is 26 µM; in assay [1] (room temperature), 66 µM.

Broadly, the EC50 is the midpoint of the concentration-response curve. A low value points to a more potent agent. As a reminder, the IC50 is the concentration at which inhibition is half-maximal.
